Measured values reported in PMC10143423, “Endoplasmic Reticulum-Targeting Two-Photon Fluorescent Probe for CYP1A Activity and Its Imaging Application in Endoplasmic Reticulum Stress” (Molecules, 2023).

Columns and labels:
A549 cells [1] = experiment: CYP1A activity imaged by ERNM in DTT-induced ER stress cell model; type: cell-based; settings: DTT 2.5 mM for 0, 1, 2, 4 h, imaged with ERNM 25 μM
Description: (§1) A549 cells were grown in RPMI-1640 culture medium (containing 10% FBS). A549 cells were seeded and incubated at 37 °C overnight. Then, A549 cells divided into different experimental groups were treated with DTT (dithiothreitol, the in-system concentration of DTT in the incubation system is 2.5 mM) for 0, 1, 2, and 4 h. The adherent cells were washed, and ERNM was added into the cell culture media (the in-system concentration of ERNM in the incubation system is 25 μM) and incubated for 60 min. Then, the cells were rinsed with PBS for at least 3 times to remove the extracellular probe. The cell images were obtained using confocal microscope (Olympus, FV1000), and the excitation wavelength was set at 800 nm and fluorescent emission windows of 520–560 nm.

CYP1A2 = molecular target: T1, CYP1A2 (Homo sapiens, UniProt P05177); experiment: ERNM O-demethylation enzyme kinetics in recombinant CYP1A2; type: biochemical
T1 construct: purchased BD Biosciences (Woburn, MA, USA)
T1 sequence (P05177 1-516): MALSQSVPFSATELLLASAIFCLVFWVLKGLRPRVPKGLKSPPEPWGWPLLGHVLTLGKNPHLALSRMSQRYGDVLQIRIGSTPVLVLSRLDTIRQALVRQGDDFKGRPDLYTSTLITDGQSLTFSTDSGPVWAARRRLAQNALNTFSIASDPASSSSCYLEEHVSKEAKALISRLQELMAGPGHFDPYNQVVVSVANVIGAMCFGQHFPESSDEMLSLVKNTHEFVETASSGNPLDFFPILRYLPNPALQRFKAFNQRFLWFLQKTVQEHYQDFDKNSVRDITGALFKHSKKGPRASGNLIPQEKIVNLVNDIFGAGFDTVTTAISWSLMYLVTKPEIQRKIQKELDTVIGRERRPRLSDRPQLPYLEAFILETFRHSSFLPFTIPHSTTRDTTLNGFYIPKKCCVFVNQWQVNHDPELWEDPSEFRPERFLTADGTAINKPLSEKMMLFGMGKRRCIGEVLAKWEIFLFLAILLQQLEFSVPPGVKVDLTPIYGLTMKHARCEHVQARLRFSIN
Description: (§2) The incubation sample consisted of NADPH-generating system (including NADP^+, magnesium chloride, glucose-6-phosphate, and glucose-6-phosphate dehydrogenase), and human liver microsomes or recombinant human CYP enzyme in potassium phosphate buffer (100 mM, pH 7.4). The total volume of the incubation mixture is 200 μL. Fluorescent substrate was dissolved in DMSO, and was pre-diluted to the working concentrations. If necessary, blank samples without NADPH or without enzymes will be set up as negative controls. The incubation reaction was initiated by adding NADP^+ after pre-incubation at 37 °C for 3 min. In addition, ice acetonitrile (100 µL) was added into the incubation samples for terminating the reaction progress. Briefly, CYP1A1 (5 nM) or CYP1A2 (5 nM) were incubated with ERNM (1, 5, 10, 15, 50, 100, 200 μM) in 200 μL of the incubation mixture in the presence of NADPH-generating systems. After incubation for 30 min, the dealkylated metabolite was measured by quantifying the intensity of fluorescence signal at 558 nm that was excited at 450 nm. Data were analyzed using GraphPad Prism 8.0 (GraphPad Software, Inc., San Diego, CA, USA).

CYP1A1 = molecular target: T2, CYP1A1 (Homo sapiens, UniProt P04798); experiment: ERNM O-demethylation enzyme kinetics in recombinant CYP1A1; type: biochemical
T2 construct: purchased BD Biosciences (Woburn, MA, USA)
T2 sequence (P04798 1-512): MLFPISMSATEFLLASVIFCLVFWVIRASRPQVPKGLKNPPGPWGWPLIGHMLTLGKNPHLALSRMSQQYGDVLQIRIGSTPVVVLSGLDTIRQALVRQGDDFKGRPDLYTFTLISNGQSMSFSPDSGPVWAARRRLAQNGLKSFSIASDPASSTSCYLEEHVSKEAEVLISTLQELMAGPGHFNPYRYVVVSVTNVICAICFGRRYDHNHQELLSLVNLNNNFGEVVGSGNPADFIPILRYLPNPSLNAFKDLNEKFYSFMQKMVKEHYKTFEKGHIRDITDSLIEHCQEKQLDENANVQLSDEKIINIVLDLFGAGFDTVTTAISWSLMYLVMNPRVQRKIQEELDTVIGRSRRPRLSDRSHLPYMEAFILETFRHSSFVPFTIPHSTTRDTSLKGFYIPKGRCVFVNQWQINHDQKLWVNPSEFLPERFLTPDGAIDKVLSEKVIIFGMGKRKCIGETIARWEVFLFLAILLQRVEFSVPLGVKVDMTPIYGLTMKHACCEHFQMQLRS
Description: as §2

A549 cells [2] = experiment: Colocalization of ERNM with ER-Tracker in living cells; type: cell-based; settings: co-incubated with ER-Tracker Red, two-photon excitation
Description: The systematic evaluation of ERNM confirmed its application in complex biosystems, subsequent work is related to the investigation of the subcellular localization of ERNM in living cells. Briefly, ERNM was co-incubated with a commercial ER-Tracker (red) in A549 cells, and then imaged under two-photon (ERNM) and single-photon (ER-Tracker) excitation conditions using confocal fluorescence microscope.
as §1

[3] = tested on: recombinant human CYP isoenzymes; experiment: Fluorescence response of ERNM toward various recombinant human CYPs; type: biochemical; settings: CYPs 15 nM, ERNM 10 μM, 30 min, 37 °C, fluorescence 558 nm
Description: The incubation sample consisted of NADPH-generating system (including NADP^+, magnesium chloride, glucose-6-phosphate, and glucose-6-phosphate dehydrogenase), and human liver microsomes or recombinant human CYP enzyme in potassium phosphate buffer (100 mM, pH 7.4). The total volume of the incubation mixture is 200 μL. Fluorescent substrate was dissolved in DMSO, and was pre-diluted to the working concentrations. If necessary, blank samples without NADPH or without enzymes will be set up as negative controls. The incubation reaction was initiated by adding NADP^+ after pre-incubation at 37 °C for 3 min. […]
To reveal the enzyme specificity for ERNM, the human recombinant CYP enzymes including CYP1A1, CYP1A2, CYP1B1, CYP2A6, CYP2A13, CYP2B6, CYP2C8, CYP2C9, CYP2C18, CYP2C19, CYP2D6, CYP2E1, CYP2J2, CYP3A4, CYP3A5, CYP4A11, CYP4F2, CYP4F3, and CYP4F12 (15 nM) were incubated with ERNM (the in-system concentration of ERNM in the incubation system is 10 μM) in 200 μL of the incubation mixture in the presence of NADPH-generating systems. After incubation for 30 min at 37 °C, the dealkylated metabolite was measured by quantifying the intensity of fluorescence signal at 558 nm that was excited at 450 nm. Data were analyzed using GraphPad Prism 8.0 (GraphPad Software, Inc., San Diego, CA, USA).

CYP1A = experiment: Inhibition of ERNM O-demethylation in human liver microsomes by selective CYP inhibitors; type: biochemical; settings: inhibitor 2.5 μM, ERNM 10 μM, HLM, fluorescence 558 nm
Description: The incubation mixture is 200 μL. […] Inhibition by TEPA for CYP2B6 were examined by adding ERNM after pre-incubation with NADPH-generating system at 37 °C for 30 min. […] In addition, the residual activity of samples was calculated by the percentage of fluorescence signal for the chemical inhibition group to the control group, with the absence of specific inhibitors. Data were analyzed using GraphPad Prism 8.0 (GraphPad Software, Inc., San Diego, CA, USA).

[4] = substrate: COc1ccc2c3c(cccc13)C(=O)N(CCNS(=O)(=O)c1ccc(C)cc1)C2=O; experiment: ERNM O-demethylation enzyme kinetics in recombinant CYP1A2; type: biochemical, human; settings: other: CYP1A2 5 nM, ERNM 1-200 μM, 30 min, fluorescence 558 nm; pH 7.4; 37.0 °C
Description: as §2

[5] = substrate: COc1ccc2c3c(cccc13)C(=O)N(CCNS(=O)(=O)c1ccc(C)cc1)C2=O; experiment: ERNM O-demethylation enzyme kinetics in recombinant CYP1A1; type: biochemical, human; settings: other: CYP1A1 5 nM, ERNM 1-200 μM, 30 min, fluorescence 558 nm; pH 7.4; 37.0 °C
Description: as §2

[6] = substrate inhibition constant, Table S1

O[C@@H](CS)[C@@H](O)CS (racemic) [DTT, dithiothreitol]
Time at which CYP1A activity reached the peak (A549 cells [1]): 2 h

COc1ccc2c3c(cccc13)C(=O)N(CCNS(=O)(=O)c1ccc(C)cc1)C2=O [ERNM]
Vmax for demethylation catalyzed by CYP1A2 (CYP1A2; CYP1A2 5 nM, ERNM 1-200 μM, 30 min): 3.32 ± 0.15 nmol/min/nmol P450 | Kinetic behavior of CYP1A2 mediated demethylation (CYP1A2; kinetic plot, Figure S5): kinetics of substrate inhibition | Ksi of ERNM O-demethylation in CYP1A2 (CYP1A2; [6]): 281.2 ± 50.2 µM | Vmax for demethylation catalyzed by CYP1A1 (CYP1A1; CYP1A1 5 nM, ERNM 1-200 μM, 30 min): 1.92 ± 0.04 nmol/min/nmol P450 | Kinetic behavior of CYP1A1 mediated demethylation (CYP1A1; kinetic plot, Figure S5): kinetics of substrate inhibition | Ksi of ERNM O-demethylation in CYP1A1 (CYP1A1; [6]): 611.3 ± 93.8 µM | Subcellular localization (overlap with ER-Tracker) (A549 cells [2]): exclusively target the ER | Selectivity of fluorescence response among CYP isoenzymes [3]: CYP1A1/1A2 mediated the generation of fluorescence signals at 558 nm over other CYP isoenzymes

O=c1cc(-c2ccccc2)oc2c1ccc1ccccc12 [α-naphthoflavone]
Effect on generation of the ERNM fluorescence signal in human liver microsomes (CYP1A): sufficiently suppressed

B1: CYP1A2 (Homo sapiens) (protein)
chain: T1 sequence (P05177 1-516)
notes: purchased BD Biosciences (Woburn, MA, USA)
Km [4]: 2.9 ± 0.5 µM | kcat [4]: 3.32 ± 0.15 nmol/min/nmol P450

B2: CYP1A1 (Homo sapiens) (protein)
chain: T2 sequence (P04798 1-512)
notes: as for B1
Km [5]: 1.0 ± 0.1 µM | kcat [5]: 1.92 ± 0.04 nmol/min/nmol P450
